From patent publication US11440923B2, “Substituted macrocyclic indole derivatives” (Bayer Aktiengesellschaft, priority 2017, dated 2022)
pIC50: −log10 of the molar value. Counter-ions that a name gives are not always drawn. Like-named read-outs stand apart in the source and are kept apart here.

Assays:
HMC-1-8 cells = assay: Antiproliferation assay HMC-1-8 (Assay 7); type: cell-based
In short: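 Growth inhibition is determined from ATP luminescence (CellTiter-Glo) following 72 h incubation with compound. Time-zero cells are measured the same way for baseline, and IC50s are referenced to DMSO controls.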

SUDHL10 cells = assay: Induction of cytotoxicity in SUDHL10 cells (Assay 6); type: cell-based; settings: 5 h, CellTiter-Glo, read-out: Cytotox SUDHL10 IC50 (median)
In short: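 Following overnight seeding at 37 °C, cells are treated with compound for 5 h, after which CellTiter-Glo reagent is added and luminescence measured following a 15 min room-temperature shake.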

BCL-XL = BCL-XL (Homo sapiens (Human), UniProt Q07817); assay: Protein-protein interaction assay BCL-XL/Bad BH3 peptide (BCL-XL assay, TR-FRET); type: binding; settings: read-out: BCL-XL Assay IC50 (median)
In short: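 Human BCL-XL (aa 1-212, C-terminal His6, E. coli) at 1 nM end concentration, preincubated 10 min at 22 °C with compound (11 concentrations, 0.1 nM–20 μM, duplicates), then biotinylated Bad BH3 peptide (1 nM) added with anti-His-Eu cryptate/streptavidin-XL665. Incubation 1 h at 22 °C then overnight at 4 °C; TR-FRET 665/620 ratio, IC50 from 4-parameter fit.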

[1] = 72 h, CellTiter-Glo; read-out: Antiproli HMC-1-8 IC50 median
[2] = 72 h, read-out: Antiproli HMC-1-8 IC50 median, 72 h, CellTiter-Glo
[3] = 72 h, CellTiter-Glo, read-out: Antiproli HMC-1-8 IC50 median

BCL-XL, sequence (Q07817 1-212): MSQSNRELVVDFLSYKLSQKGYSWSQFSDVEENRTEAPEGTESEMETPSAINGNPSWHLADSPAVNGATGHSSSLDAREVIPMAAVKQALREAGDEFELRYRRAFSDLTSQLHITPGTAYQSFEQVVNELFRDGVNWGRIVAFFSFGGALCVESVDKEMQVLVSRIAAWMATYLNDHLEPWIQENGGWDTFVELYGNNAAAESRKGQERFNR

| Compound | pIC50 (HMC-1-8 cells; [1]) | pIC50 (SUDHL10 cells) | pIC50 (BCL-XL) | pIC50 (HMC-1-8 cells; [2]) | pIC50 (SUDHL10 cells; Homo sapiens, SU-DHL10, 5 h) | pIC50 (HMC-1-8 cells; [3]) |
| --- | --- | --- | --- | --- | --- | --- |
| CCc1c2c(nn1C)C(CCO)OCCCCn1c(C(=O)O)c(CCCOc3cccc4cc(F)ccc34)c3ccc(Cl)c-2c31 (single isomer, unassigned; enantiomer 2) [Example 46, (−)-4-chloro-3-ethyl-7-{3-[(6-fluoronaphthalen-1-yl)oxy]propyl}-15-(2-hydroxyethyl)-2-methyl-2,10,11,12,13,15-hexahydropyrazolo[4′,3′:9,10][1,6]oxazacycloundecino[8,7,6-hi]indole-8-carboxylic Acid (Enantiomer 2)] | < 4.48 | 5.26 | < 4.70 | – | – | – |
| Cc1c2c(nn1C)C(CCN1CCOCC1)OCCCCn1c(C(=O)O)c(CCCOc3cccc4cc(F)ccc34)c3ccc(F)c-2c31 (single isomer, unassigned; enantiomer 1) [Example 20, 4-fluoro-7-{3-[(6-fluoronaphthalen-1-yl)oxy]propyl}-2,3-dimethyl-15-[2-(morpholin-4-yl)ethyl]-2,10,11,12,13,15-hexahydropyrazolo[4′,3′:9,10][1,6]oxazacycloundecino[8,7,6-hi]indole-8-carboxylic Acid—N-ethylethanamine (Enantiomer 1)] | – | – | < 4.70 | 6.34 | 7.39 | – |
| CCc1c2c(nn1C)C(CCC1CCOCC1)OCCCCn1c(C(=O)O)c(CCCOc3cccc4cc(F)ccc34)c3ccc(Cl)c-2c31 (single isomer, unassigned; enantiomer 2) [Example 62, (−)-4-chloro-3-ethyl-7-{3-[(6-fluoronaphthalen-1-yl)oxy]propyl}-2-methyl-15-[2-(oxan-4-yl)ethyl]-2,10,11,12,13,15-hexahydropyrazolo[4′,3′:9,10][1,6]oxazacycloundecino[8,7,6-hi]indole-8-carboxylic Acid (Enantiomer 2)] | 4.66 | 5.11 | < 4.70 | – | – | – |
| CCc1c2c(nn1C)C(CCC(C)(C)O)OCCCCn1c(C(=O)O)c(CCCOc3cccc4cc(F)ccc34)c3ccc(Cl)c-2c31 (racemic) [Example 74, (rac)-4-chloro-3-ethyl-7-{3-[(6-fluoronaphthalen-1-yl)oxy]propyl}-(15-rac)-(3-hydroxy-3-methylbutyl)-2-methyl-2,10,11,12,13,15-hexahydropyrazolo[4′,3′:9,10][1,6]oxazacycloundecino[8,7,6-hi]indole-8-carboxylic Acid] | – | – | 4.88 | – | 7.26 | 6.40 |
| CCc1c2c(nn1C)C(CCOC)OCCCCn1c(C(=O)O)c(CCCOc3cccc4cc(F)ccc34)c3ccc(Cl)c-2c31 (racemic) [Example 41, (rac)-4-chloro-3-ethyl-7-{3-[(6-fluoronaphthalen-1-yl)oxy]propyl}-(15-rac)-(2-methoxyethyl)-2-methyl-2,10,11,12,13,15-hexahydropyrazolo[4′,3′:9,10][1,6]oxazacycloundecino[8,7,6-hi]indole-8-carboxylic Acid] | – | – | 4.82 | – | 6.80 | 5.88 |
| Cc1c2c(nn1C)C(CCO)OCCCCn1c(C(=O)O)c(CCCOc3cccc4ccccc34)c3ccc(Cl)c-2c31 (single isomer, unassigned; enantiomer 2) [Example 32, (−)-4-chloro-15-(2-hydroxyethyl)-2,3-dimethyl-7-{3-[(naphthalen-1-yl)oxy]propyl}-2,10,11,12,13,15-hexahydropyrazolo[4′,3′:9,10][1,6]oxazacycloundecino[8,7,6-hi]indole-8-carboxylic Acid (Enantiomer 2)] | < 4.48 | < 4.48 | < 4.70 | – | – | – |
| COCCC1OCCCCn2c(C(=O)O)c(CCCOc3cccc4ccccc34)c3ccc(Cl)c(c32)-c2c1nn(C)c2C (racemic) [Example 37, (rac)-4-chloro-(15-rac)-(2-methoxyethyl)-2,3-dimethyl-7-{3-[(naphthalen-1-yl)oxy]propyl}-2,10,11,12,13,15-hexahydropyrazolo[4′,3′:9,10][1,6]oxazacycloundecino[8,7,6-hi]indole-8-carboxylic Acid] | – | – | 4.77 | – | 6.44 | 5.13 |
| CCc1c2c(nn1C)C(CCN1CCOCC1)OCCCCn1c(C(=O)O)c(CCCOc3cccc4cc(F)ccc34)c3ccc(F)c-2c31 (racemic) [Example 49, (rac)-3-Ethyl-4-fluoro-7-{3-[(6-fluoronaphthalen-1-yl)oxy]propyl}-2-methyl-(15-rac)-[2-(morpholin-4-yl)ethyl]-2,10,11,12,13,15-hexahydropyrazolo[4′,3′:9,10][1,6]oxazacycloundecino[8,7,6-hi]indole-8-carboxylic Acid] | – | – | < 4.70 | – | 7.48 | 5.97 |
| CCc1c2c(nn1C)C(CCCN1CCOCC1)OCCCCn1c(C(=O)O)c(CCCOc3cccc4cc(F)ccc34)c3ccc(Cl)c-2c31 (racemic) [Example 65, (rac)-4-chloro-3-ethyl-7-{3-[(6-fluoronaphthalen-1-yl)oxy]propyl}-2-methyl-(15-rac)-[3-(morpholin-4-yl)propyl]-2,10,11,12,13,15-hexahydropyrazolo[4′,3′:9,10][1,6]oxazacycloundecino[8,7,6-hi]indole-8-carboxylic Acid] | – | – | < 4.70 | – | 7.00 | 6.40 |
| CCc1c2c(nn1C)C(Cc1ccccc1)OCCCCn1c(C(=O)O)c(CCCOc3cccc4cc(F)ccc34)c3ccc(Cl)c-2c31 (racemic) [Example 92, (rac)-(rac-15)-benzyl-4-chloro-3-ethyl-7-{3-[(6-fluoro-1-naphthyl)oxy]propyl}-2-methyl-2,10,11,12,13,15-hexahydropyrazolo[4′,3′:9,10][1,6]oxazacycloundecino[8,7,6-hi]indole-8-carboxylic Acid] | – | – | 4.88 | – | 5.85 | 5.15 |
| Cc1c2c(nn1C)C(CCN1CCOCC1)OCCCCn1c(C(=O)O)c(CCCOc3cccc4cc(F)ccc34)c3ccc(F)c-2c31 (single isomer, unassigned; enantiomer 2) [Example 21, 4-fluoro-7-{3-[(6-fluoronaphthalen-1-yl)oxy]propyl}-2,3-dimethyl-15-[2-(morpholin-4-yl)ethyl]-2,10,11,12,13,15-hexahydropyrazolo[4′,3′:9,10][1,6]oxazacycloundecino[8,7,6-hi]indole-8-carboxylic Acid (Enantiomer 2)] | – | – | < 4.70 | – | 4.85 | 4.88 |
| Cc1c2c(nn1C)C(CCN1CCOCC1)OCCCCn1c(C(=O)O)c(CCCOc3cccc4cc(F)ccc34)c3ccc(Cl)c-2c31 (single isomer, unassigned; enantiomer 2) [Example 18, 4-chloro-7-{3-[(6-fluoronaphthalen-1-yl)oxy]propyl}-2,3-dimethyl-15-[2-(morpholin-4-yl)ethyl]-2,10,11,12,13,15-hexahydropyrazolo[4′,3′:9,10][1,6]oxazacycloundecino[8,7,6-hi]indole-8-carboxylic Acid (Enantiomer 2)] | – | – | < 4.70 | – | 6.11 | 4.90 |
| CCc1c2c(nn1C)C(C1CC1)OCCCCn1c(C(=O)O)c(CCCOc3cccc4cc(F)ccc34)c3ccc(Cl)c-2c31 (single isomer, unassigned; enantiomer 1) [Example 39, (+)-4-chloro-15-cyclopropyl-3-ethyl-7-{3-[(6-fluoronaphthalen-1-yl)oxy]propyl}-2-methyl-2,10,11,12,13,15-hexahydropyrazolo[4′,3′:9,10][1,6]oxazacycloundecino[8,7,6-hi]indole-8-carboxylic Acid—N-ethylethanamine Salt (Enantiomer 1)] | – | 5.85 | 4.74 | 4.91 | – | – |
